Measured values as given in patent publication US20160238590A1, “COMPOSITIONS AND METHODS RELATED TO OAT SENSITIVITY” (IMMUSANT, INC., priority 2013, published 2016).

How the values were obtained:
Format in all cases: cell-based, human
PBMC [1] = experiment: IFN-γ ELISpot on PBMC of CD patients after combined wheat, barley, and rye challenge
From the text: Australian Caucasian HLA-DQ2.5^+ and/or HLA-DQ8^+ CD subjects were recruited by advertisement in the Coeliac Society of Victoria newsletter and all had biopsy-proven CD conforming to ESPGHAN criteria. Patients had been on strict gluten free diet for at least 4 weeks prior to commencing grain challenge. Patients underwent 3-day grain challenge with oats, barley, or combined wheat, barley, and rye muffins, and 6 days after commencement, blood was collected. Day 0 responses were not observed in the selection of patients tested, as described previously^8.
Oats challenge consisted of 100 g dry weight daily of one of three commercial brands of oats: one not tested for wheat contamination (Uncle Toby's; Oats #1), and two shown by R5 ELISA to contain less than 20 ppm wheat gluten (Tilquhilie Pudding; Oats #2 and Freedom Food; Oats #3). Barley challenge consisted of pearl barley (Ward McKenzie) cooked into a risotto (150 g dry weight daily) and the wheat challenge consisted of four 50 g slices of wheat bread daily (Baker's Delight white loaf cut to toasting thickness). The combined wheat, barley, and rye challenge consisted of muffins baked with wheat flour (White Wings), barley flour (Four Leaf Milling), and rye flour (Four Leaf Milling; 22-25 g dry weight each daily). A symptom diary based on a […] Likert scale was completed by participants daily from baseline until day 6.
Two avenin peptide libraries were utilized for epitope screening. These were designed using avenin sequences from GenBank and a customized algorithm, as previously described^9. The initial library consisted of 199 screening-grade 20 mers including all possible 12 mers (Mimotopes). This library was screened with and without tTG pre-treatment. The second library consisted of additional avenin sequences that were synthesized with glutamate substitution at sites predicted to be deamidated by published algorithms^10, 11 removing the requirement for tTG treatment. This library contained 369 screening-grade 20 mers, including all possible 12 mers (Pepscan). The second round avenin library contained wild-type and deamidated versions of the most immunogenic sequences (25 high quality 16 mers from Mimotopes). High quality peptides containing previously described immunogenic sequences from wheat, barley, and rye were used to test for cross-reactivity^8 (Pepscan). High quality hordein and avenin peptides for TCC testing and biochemical studies were ordered from Pepscan, Mimotopes, or GL Biochem.
Peripheral blood mononuclear cells (PBMC) were isolated from heparinized whole blood using Ficoll-Paque™ Plus density-gradient centrifugation (GE Healthcare). IFN-γ ELISpot (Mabtech) was set up as previously described^8.

PBMC [2] = experiment: IFN-γ ELISpot on PBMC of CD patients after 3-day barley challenge; conditions: for response following barley challenge: 3 oats responders, titrating concentrations (FIG. 1b); for patients responding following pure barley challenge: 3 patients that had previously responded to avenin peptides following oats challenge
Procedure, shortened: (§1)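 PBMC from HLA-DQ2.5+/DQ8+ biopsy-proven coeliac patients on gluten-free diet ≥4 weeks, collected on day 6 after starting a 3-day oral challenge (oats 100 g/day, barley 150 g/day, or wheat/barley/rye muffins 22-25 g each daily). Responses to avenin, hordein and gluten peptide libraries, some deamidated or tTG-treated, measured by IFN-γ ELISpot.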

Patient 9 TCC-02 = experiment: IFN-γ ELISpot with T cell clone; conditions: TCC Patient 9 TCC-02, peptide 50 μg/mL
Procedure, shortened: (§2)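 Patient PBMC were labeled with CFSE and cultured with antigen for seven days. Dividing cells were sorted singly onto feeders with IL-2, IL-4 and anti-CD3. Expanded clones were then screened by IFN-γ ELISpot against antigen on irradiated HLA-matched PBMC.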

Patient 14 TCC-01 = experiment: IFN-γ ELISpot with T cell clone; conditions: TCC Patient 14 TCC-01, peptide 50 μg/mL
Procedure, shortened: as §2

Patient 2 TCC-03 = experiment: IFN-γ ELISpot with T cell clone; conditions: TCC Patient 2 TCC-03, peptide 25 μg/mL
Procedure, shortened: as §2

Patient 2 TCC-02 = experiment: IFN-γ ELISpot with T cell clone; conditions: TCC Patient 2 TCC-02, peptide 25 μg/mL
Procedure, shortened: as §2

Patient 9 TCC-01 = experiment: IFN-γ ELISpot with T cell clone; conditions: TCC Patient 9 TCC-01, peptide 50 μg/mL
Procedure, shortened: as §2

Patient 6 TCC-01 = experiment: IFN-γ ELISpot with T cell clone
Procedure, shortened: as §2

Patient 2 TCC-01 = experiment: IFN-γ ELISpot with T cell clone
Procedure, shortened: as §2

Patient 8 TCC-01 = experiment: IFN-γ ELISpot with T cell clone; conditions: TCC Patient 8 TCC-01, peptide 25 μg/mL
Procedure, shortened: as §2

Patient 10 TCC-01 = experiment: IFN-γ ELISpot with T cell clone; conditions: TCC Patient 10 TCC-01, peptide 50 μg/mL
Procedure, shortened: as §2

PBMC [3] = experiment: IFN-γ ELISpot on PBMC of CD patients on day 6 after 3-day oats challenge
Procedure, shortened: as §1

[4] = 19 HLA-DQ2.5+ CD patients, peptide 10 μg/mL (FIG. 1a)
[5] = Patient 1, peptide 25 μg/ml, after barley challenge
[6] = Patient 2, peptide 25 μg/ml, after barley challenge
[7] = Patient 3, peptide 25 μg/ml, after barley challenge
[8] = TCC Patient 6 TCC-01, peptide 25 μg/mL
[9] = TCC Patient 6 TCC-01, peptide 50 μg/mL
[10] = TCC Patient 2 TCC-01, peptide 25 μg/mL
[11] = TCC Patient 2 TCC-01, peptide 50 μg/mL

| Sequence | patients that did not respond to either peptide (PBMC [1]; [4]) | patients that responded to both peptides (PBMC [1]; [4]) | response following barley challenge (PBMC [2]) | patients responding following pure barley challenge (PBMC [2]) | IFN-γ ELISpot response (raw SFU) (PBMC [2]; [5]) | significant SFU as a percentage of maximal peptide SFU (PBMC [2]; [5]) | IFN-γ ELISpot response (raw SFU) (PBMC [2]; [6]) | significant SFU as a percentage of maximal peptide SFU (PBMC [2]; [6]) | IFN-γ ELISpot response (raw SFU) (PBMC [2]; [7]) | significant SFU as a percentage of maximal peptide SFU (PBMC [2]; [7]) | IFN-γ ELISpot response (raw SFU) (Patient 9 TCC-02) | IFN-γ ELISpot response (raw SFU) (Patient 14 TCC-01) | IFN-γ ELISpot response (SFU) (Patient 2 TCC-03) | IFN-γ ELISpot response (SFU) (Patient 2 TCC-02) | IFN-γ ELISpot response (raw SFU) (Patient 9 TCC-01) | IFN-γ ELISpot response (SFU) (Patient 6 TCC-01; [8]) | IFN-γ ELISpot response (raw SFU) (Patient 6 TCC-01; [9]) | IFN-γ ELISpot response (SFU) (Patient 2 TCC-01; [10]) | IFN-γ ELISpot response (raw SFU) (Patient 2 TCC-01; [11]) | IFN-γ ELISpot response (SFU) (Patient 8 TCC-01) | also measured |
| --- | --- | --- | --- | --- | --- | --- | --- | --- | --- | --- | --- | --- | --- | --- | --- | --- | --- | --- | --- | --- | --- |
| YQPYPEQEQPILQQ | 9 patients | 8 patients | responded to all three peptides to varying degrees | All three patients responded | 59 SFU | ^^ (^^: 10-20%) | 204.5 SFU | *** (***: >70%) | 26 SFU | ^^ (^^: 10-20%) | 2 SFU | 18 SFU | 1 SFU | 145 SFU | 4 SFU | 3 SFU | 2 SFU | 238 SFU | 300 SFU | 114 SFU | responses compared with DQ2.5-hor-3a responses (PBMC [2]; 2/3 patients, after barley challenge (FIG. 1b)): lower; patients with lower polyclonal T cell responses compared with 1103203A (31-45) peptide (PBMC [2]; after barley challenge): 2/3; significant SFU as a percentage of maximal peptide SFU (Patient 2 TCC-02): ** (**: 40-70%); significant SFU as a percentage of maximal peptide SFU (Patient 2 TCC-01; [10]): *** (***: >70%); significant SFU as a percentage of maximal peptide SFU (Patient 2 TCC-01; [11]): *** (***: >70%); significant SFU as a percentage of maximal peptide SFU (Patient 8 TCC-01): ** (**: 40-70%); IFN-γ ELISpot response (raw SFU) (Patient 10 TCC-01): 5 SFU; response following oats challenge (PBMC [3]; three additional patients that responded to the peptide after barley challenge): did not respond; response after previous oats challenge (PBMC [3]; three patients that responded after the combined grain challenge): no responses |
| PEQPIPEQPQPYPQQ | 9 patients | 8 patients | responded to all three peptides to varying degrees | All three patients responded | 317 SFU | *** (***: >70%) | 162 SFU | *** (***: >70%) | 142 SFU | *** (***: >70%) | 2 SFU | 48 SFU | 156 SFU | 1 SFU | 4 SFU | 107 SFU | 86 SFU | 1 SFU | 1 SFU | 143 SFU | patients that responded to the hordein peptide but not the avenin peptide (PBMC [1]; [4]): 2 patients; responses compared with AAB32025 (7-21) [Q7 to pyroE, Q15 to E, and Q21 to Q-amide] responses (PBMC [1]; combined wheat, barley, and rye challenge): generally higher; responses compared with DQ2.5-ave-1c responses (PBMC [2]; third patient, after barley challenge (FIG. 1b)): slightly lower; significant SFU as a percentage of maximal peptide SFU (Patient 14 TCC-01): ** (**: 40-70%); significant SFU as a percentage of maximal peptide SFU (Patient 2 TCC-03): *** (***: >70%); significant SFU as a percentage of maximal peptide SFU (Patient 6 TCC-01; [8]): *** (***: >70%); significant SFU as a percentage of maximal peptide SFU (Patient 6 TCC-01; [9]): *** (***: >70%); significant SFU as a percentage of maximal peptide SFU (Patient 8 TCC-01): *** (***: >70%); IFN-γ ELISpot response (raw SFU) (Patient 10 TCC-01): 3 SFU |
